Values joined by “and” are separate entries in the source; they are usually repeats but may differ in a detail not shown here. Equal entries are not always repeated.
Columns and labels:
[1] = system: plasma; assay: Anticoagulant activity: thrombin time (TT), Sysmex CA-1500; assay type: biochemical, human; details: 20 μl sample + 80 μl plasma, number in label = g/dL
Method: (§1) Antithrombotic (anticoagulant) activity was evaluated according to a previously reported method. Each of thromborel S, actin and thrombin, which are reagents for Sysmex CA-1500 for analysis of PT, aPTT and TT, was mounted in Sysmex CA-1500 (Siemens Healthcare, Germany) which is an automated blood coagulation test device. According to the automated procedure of the test device, clotting time (sec) (prothrombin time (PT), activated partial thromboplastin time (aPTT) and thrombin time (TT)) was measured. A sufficient amount of a sample for each of the three analyses was about 400 uL of an 80:20 mixture of plasma and a test substance.
(§2) The isolated plasma was used in an experiment in a fresh state within 5-6 hours.
(§3) In this experiment, for the relative comparison of the measured clotting time (sec) (PT, aPTT and TT) between test groups, clotting time prolongation (%) relative to triple distilled water (purified water) that is a normal control test sample was statistically analyzed. For statistical analysis, the […] anticoagulant activities of test materials were comparatively analyzed using SPSS IBM version 21.0 by one-way ANOVA at p<0.05, and significance comparison between groups was performed by Duncan's test.
(§4) The aspirin solution was immediately used at room temperature in a light-shielded state or was cold-stored.
(§5) As a control, aspirin was used, and as a vehicle control, triple distilled water (purified water) was used instead of the sample.

[2] = system: plasma; assay: Anticoagulant activity: activated partial thromboplastin time (aPTT), Sysmex CA-1500; assay type: biochemical, human; details: 20 μl sample + 80 μl plasma, number in label = g/dL
Method: as §1, §2, §3, §4, §5

[3] = system: plasma; assay: Anticoagulant activity: prothrombin time (PT), Sysmex CA-1500; assay type: biochemical, human; details: 20 μl sample + 80 μl plasma, number in label = g/dL
Method: as §1, §2, §3, §4, §5

[4] = Body weight and body weight gain of high-fat diet mice; assay type: in vivo, mice (C57BL/6); details: for Body weight / Body weight gain: high-fat diet mice, mean
Method: (§6) Using 8-week-old male mice (C57BL/6) (purchased from CoreTech), anti-diabetic candidate materials were evaluated using a GTT (Glucose Tolerance Test) that is a typical method for diagnosis of diabetes.
(§7) Mice were housed at a temperature of 22±2° C. and a relative humidity of 55-60% with 12-hr light/12-hr dark cycles. Five animals were allotted to each group, and mice from the same mother were grouped into one group, because male mice tend to fight together.
(§8) As feed, high-fat diet (60% of calories from fat; Research Diet Inc., New Brunswick, N.J.) and water were fed ad libitum for 10 weeks. Herein, the water fed contained the samples prepared in Examples 1-2 (3), 2-1, 2-4-1, 2-4-2 and 2-5. As a positive control, metformin (M-072, Sigma) (250 mg/kg) was used, and as a control, the samples prepared in Comparative Examples 1-1, 2-3-2, 2-5-1, 2-5-2 and 2-6 were used.
(§9) For reference, each of the samples prepared in Examples 2-4-1, 2-4-2 and 2-5 was set to the amount to be taken by an adult (60 kg) for 3 days, and the amount was converted into a mouse dose (12-fold/kg, see the US NIH guidance), thereby preparing animal feed. Namely, the amount to be taken by an adult (60 kg) for 3 days is 180-day dose/kg, which corresponds to 15-day dose/kg for mice. Thus, the amount corresponds to 750-day dose/mouse (20 g), because the average weight of mice is about 20 g. Thus, one mouse was allowed to take 1/750 of the prepared sample each day.
(§10) In addition, each of the samples prepared in Examples 1-2 (3) and 2-1 was set to the amount to be taken by an adult (60 kg) for 2 days, and the amount was converted into a mouse dose (12-fold/kg, see the US NIH guidance), thereby preparing animal feed. Namely, the amount to be taken by an adult (60 kg) for 2 days is 120-day dose/kg, which corresponds to 10-day dose/kg for mice. Thus, the amount corresponds to 500-day dose/mouse (20 g), because the average weight of mice is about 20 g. Thus, one mouse was allowed to take 1/500 of the prepared sample each day.
The diet intake and the body weight gain were measured weekly for 8 weeks. The body weight and the diet intake were measured immediately before first drug administration, and then measured at one-week intervals.
(§11) Meanwhile, experimental analysis results were expressed as mean±S.E.M., and the significance between test groups was statistically processed using Student T-TEST, and then the significance was verified at *P<0.05.

[5] = system: male mice (C57BL/6), high-fat diet; assay: Glucose tolerance test (GTT) at 8 weeks of high-fat diet feeding; assay type: in vivo
Method: as §6, §7, §8, §9, §10
At 8 weeks of high-fat diet feeding, a glucose tolerance test (GTT) was performed. For 8 hours for the test, mice were fasted. Then, blood was sampled from the tail vein, and initial blood glucose levels were measured with a blood glucose meter (AUTO-CHEK, Diatech Korea). Then, glucose was administered intraperitoneally to the mice at a concentration of 1 g/kg, and after 30 min, 60 min, 90 min and 120 min, blood was sampled from the mice, followed by measurement of blood glucose levels (each group consisting of five animals).
as §11

**Q.** Which “TT clotting time prolongation relative to purified water, Mean” value ([1]; Table 18, listed as Ara 5.2) does the source give for `O=C[C@@H](O)[C@H](O)[C@H](O)CO` [Ara, arabinose] here?
**A.** 13.40%

**Q.** What about the “TT clotting time prolongation relative to purified water, Mean” value ([1]; Table 18, listed as Ara 7.8) of the same compound?
**A.** 22.92%

**Q.** Which results are given for `CC(=O)Oc1ccccc1C(=O)O` [Asp 7.5 mg/ml, aspirin]?
**A.** TT clotting time prolongation relative to purified water, Mean ([1]; Table 18): 13.59%; TT clotting time prolongation relative to purified water, Mean ([1]; Table 19, values excluding one sample showing an extreme value): 20.96%; TT clotting time prolongation relative to purified water, Mean ([1]; Table 20): 23.95%; aPTT clotting time prolongation relative to purified water, Mean ([2]; Table 18): 7.31%; aPTT clotting time prolongation relative to purified water, Mean ([2]; Table 19): 16.28%; aPTT clotting time prolongation relative to purified water, Mean ([2]; Table 20): 29.82%; PT clotting time prolongation relative to purified water, Mean ([3]; Table 18): 9.90%; PT clotting time prolongation relative to purified water, Mean ([3]; Table 19): 17.51%; PT clotting time prolongation relative to purified water, Mean ([3]; Table 20): 26.02%

**Q.** Which results are given for `O=C(CO)[C@@H](O)[C@H](O)[C@H](O)CO` [Fruc, fructose]?
**A.** TT clotting time prolongation relative to purified water, Mean ([1]; Table 20, listed as Fruc 6.2): 13.19%; TT clotting time prolongation relative to purified water, Mean ([1]; Table 20, listed as Fruc 12.4): 30.07%; aPTT clotting time prolongation relative to purified water, Mean ([2]; Table 20): −0.20%; aPTT clotting time prolongation relative to purified water, Mean ([2]; Table 20, listed as Fruc 12.4): 0.58%; PT clotting time prolongation relative to purified water, Mean ([3]; Table 20): 0.54%

**Q.** What does the source list for `O=C[C@H](O)[C@@H](O)[C@H](O)[C@H](O)CO` [Gluc, glucose]?
**A.** TT clotting time prolongation relative to purified water, Mean ([1]; Table 19, values excluding one sample showing an extreme value, listed as Gluc 6.2): 16.24%; TT clotting time prolongation relative to purified water, Mean ([1]; Table 19, values excluding one sample showing an extreme value, listed as Gluc 12.4): 27.82%; aPTT clotting time prolongation relative to purified water, Mean ([2]; Table 19, listed as Gluc 6.2): 2.22%; aPTT clotting time prolongation relative to purified water, Mean ([2]; Table 19, listed as Gluc 12.4): 2.89%; PT clotting time prolongation relative to purified water, Mean ([3]; Table 19, listed as Gluc 6.2): 1.69%; PT clotting time prolongation relative to purified water, Mean ([3]; Table 19, listed as Gluc 12.4): 2.26%

**Q.** Which results are given for `O=C[C@@H](O)[C@@H](O)[C@H](O)[C@H](O)CO` [Mann, mannose]?
**A.** TT clotting time prolongation relative to purified water, Mean ([1]; Table 20, listed as Mann 3.1): 11.67%; TT clotting time prolongation relative to purified water, Mean ([1]; Table 20, listed as Mann 6.2): 22.74%; TT clotting time prolongation relative to purified water, Mean ([1]; Table 20, listed as Mann 12.4): 47.87%; aPTT clotting time prolongation relative to purified water, Mean ([2]; Table 20, listed as Mann 3.1): 0.65%; aPTT clotting time prolongation relative to purified water, Mean ([2]; Table 20, listed as Mann 6.2): 1.24%; aPTT clotting time prolongation relative to purified water, Mean ([2]; Table 20, listed as Mann 12.4): 7.98%; PT clotting time prolongation relative to purified water, Mean ([3]; Table 20, listed as Mann 3.1): 2.71%; PT clotting time prolongation relative to purified water, Mean ([3]; Table 20, listed as Mann 6.2): 5.96%; PT clotting time prolongation relative to purified water, Mean ([3]; Table 20, listed as Mann 12.4): 13.55%

**Q.** Which “Body weight” value ([4]; 1 week) does the source give for `CN(C)C(=N)N=C(N)N` [Metformin, metformin] here?
**A.** 21.00 g

**Q.** What about the “Body weight” value ([4]; 2 weeks) of the same compound?
**A.** 22.78 g and 26.344 g

**Q.** And the “Body weight gain” value ([4]; 2 weeks)?
**A.** 3.48 g

**Q.** And the “Body weight” value ([4]; 3 weeks)?
**A.** 23.84 g

**Q.** And the “Body weight gain” value ([4]; 3 weeks)?
**A.** 4.54 g

**Q.** And the “Body weight” value ([4]; 4 weeks)?
**A.** 25.18 g

**Q.** What about the “Body weight gain” value ([4]; 4 weeks) of the same compound?
**A.** 5.88 g and 4.600 g

**Q.** What about the “Body weight” value ([4]; 5 weeks) of the same compound?
**A.** 25.72 g

**Q.** And the “Body weight gain” value ([4]; 5 weeks)?
**A.** 6.42 g

**Q.** What about the “Body weight” value ([4]; 6 weeks) of the same compound?
**A.** 26.34 g

**Q.** What about the “Body weight gain” value ([4]; 6 weeks) of the same compound?
**A.** 7.04 g

**Q.** And the “Body weight” value ([4]; 7 weeks)?
**A.** 27.52 g

**Q.** What about the “Body weight gain” value ([4]; 7 weeks) of the same compound?
**A.** 8.22 g

**Q.** What about the “Body weight” value ([4]; 8 weeks) of the same compound?
**A.** 28.20 g

**Q.** What about the “Body weight” value ([4]; Before admis.) of the same compound?
**A.** 19.30 g

**Q.** What about the “Weight, Mean” value ([4]; HFD mice, sample in drinking water, 1 week) of the same compound?
**A.** 21.00 g

**Q.** And the “Weight, Mean” value ([4]; HFD mice, sample in drinking water, 6 weeks)?
**A.** 26.34 g

**Q.** What about the “Glucose level, 0 min” value ([5]; GTT, high-fat diet mice, 0 min (fasting, before administration), mean) of the same compound?
**A.** 144.20 mg/dL

**Q.** What about the “Glucose level, 30 min” value ([5]; GTT, high-fat diet mice, 30 min, mean) of the same compound?
**A.** 386.40 mg/dL

**Q.** What about the “Glucose level, 60 min” value ([5]; GTT, high-fat diet mice, 60 min, mean) of the same compound?
**A.** 301.40 mg/dL

**Q.** What about the “Glucose level, 90 min” value ([5]; GTT, high-fat diet mice, 90 min, mean) of the same compound?
**A.** 194.40 mg/dL

**Q.** What about the “Glucose level, 120 min” value ([5]; GTT, high-fat diet mice, 120 min, mean) of the same compound?
**A.** 135.20 mg/dL

**Q.** Which results are given for `O=C[C@H](O)[C@H](O)[C@H](O)CO` [Rib, ribose]?
**A.** TT clotting time prolongation relative to purified water, Mean ([1]; Table 19, values excluding one sample showing an extreme value, listed as Rib 5.2): 23.15%; TT clotting time prolongation relative to purified water, Mean ([1]; Table 19, values excluding one sample showing an extreme value, listed as Rib 10.4): 52.50%

**Q.** With `NCCS(=O)(=O)O` [Tau, taurine] as the compound, how does the “Body weight gain, Mean” value ([4]; HFD mice, sample in drinking water, 8 weeks) read?
**A.** 9.52 g

**Q.** And the “body weight gain compared to the group administered with high-fat diet (HFD) alone” value ([4]; at 8 weeks after high-fat diet feeding, in words)?
**A.** significant reduction in body weight gain

**Q.** And the fasting glucose level ([5]; 8 h fasted, 8 weeks of HFD, in words, comparator in the value)?
**A.** all lower than that of the mice administered with high-fat diet (HFD), and were similar to the blood glucose levels of normal mice

**Q.** And the “glucose control ability in GTT” value ([5]; glucose 1 g/kg i.p., 8 weeks of HFD, in words, comparator in the value)?
**A.** significantly higher than that of the group administered with HFD alone

**Q.** Which results are given for `O=C[C@H](O)[C@@H](O)[C@H](O)CO` [Xyl, xylose]?
**A.** TT clotting time prolongation relative to purified water, Mean ([1]; Table 18, listed as Xyl 1.04): 2.68%; TT clotting time prolongation relative to purified water, Mean ([1]; Table 18, listed as Xyl 5.2): 14.59%; TT clotting time prolongation relative to purified water, Mean ([1]; Table 18, listed as Xyl 7.8): 24.41%

Source: patent publication US20190152905A1 (priority 2016, published 2019)
